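Five concentrations, 48 hours, 96-well plates. GI50 is the concentration that inhibits growth by half. The concentration for full growth arrest is given as TGI.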
Columns and labels:
Test in all cases: DTP human tumour cell line panel, 48 h
SF-268 CNS = tested on: SF-268 CNS
DU-145 prostate = tested on: DU-145 prostate
CAKI-1 renal = tested on: CAKI-1 renal
UO-31 renal = tested on: UO-31 renal
HS 578T breast = tested on: HS 578T breast
HCT-116 colon = tested on: HCT-116 colon
EKVX NSCLC = tested on: EKVX NSCLC
IGROV1 ovarian = tested on: IGROV1 ovarian
PC-3 prostate = tested on: PC-3 prostate
SR leukemia = tested on: SR leukemia

## COc1cc(Cn2c(=S)ss/c2=N\C(=S)N(C)C)cc(OC)c1OC
SF-268 CNS
  TGI: > 75.7 µM
DU-145 prostate
  TGI: > 39.5 µM
CAKI-1 renal
  TGI: > 100 µM
UO-31 renal
  TGI: > 100 µM
HS 578T breast
  TGI: > 100 µM
HCT-116 colon
  TGI: > 70.7 µM
EKVX NSCLC
  TGI: > 100 µM
IGROV1 ovarian
  TGI: > 96 µM
PC-3 prostate
  TGI: > 100 µM
SR leukemia
  TGI: > 61.2 µM

## CCCCCCC#Cc1ccccc1C#CCO
SF-268 CNS
  GI50: 30.6 µM
  TGI: 65.2 µM
DU-145 prostate
  GI50: 17.7 µM
  TGI: 36.3 µM
CAKI-1 renal
  GI50: 14.6 µM
  TGI: 33.2 µM
UO-31 renal
  GI50: 18.8 µM
  TGI: 38.6 µM
HS 578T breast
  GI50: 17.2 µM
  TGI: 39.4 µM
HCT-116 colon
  GI50: 23.4 µM
  TGI: 49.6 µM
EKVX NSCLC
  GI50: 21.9 µM
  TGI: 50.6 µM
IGROV1 ovarian
  GI50: 18 µM
  TGI: 43.3 µM
PC-3 prostate
  GI50: 25.4 µM
  TGI: 95.2 µM
SR leukemia
  GI50: 39.9 µM
  TGI: > 100 µM

## O=C1C=C[C@@]23C[C@@H](Nc4c(O)c5c6c(c42)=NCCC=6C=N5)SC3=C1
SF-268 CNS
  GI50: 3.04 µM
  TGI: 10.1 µM
DU-145 prostate
  GI50: 17.1 µM
  TGI: 30.9 µM
CAKI-1 renal
  TGI: 32.1 µM
UO-31 renal
  TGI: 22.8 µM
HS 578T breast
  GI50: 3.75 µM
  TGI: 19.8 µM
HCT-116 colon
  TGI: 4.03 µM
EKVX NSCLC
  GI50: 7.74 µM
  TGI: 20.2 µM
IGROV1 ovarian
  GI50: 2.01 µM
  TGI: 4.35 µM
PC-3 prostate
  GI50: 2.42 µM
  TGI: 7.61 µM
SR leukemia
  GI50: 2.26 µM
  TGI: 6.14 µM

## COc1ccc(C/C(C)=C(\c2ccc(OCCN3CCOCC3)cc2)c2ccc(OC(=O)Cc3ccccc3)cc2)cc1
SF-268 CNS
  GI50: 0.96 µM
  TGI: 12.8 µM
DU-145 prostate
  GI50: 1.33 µM
  TGI: 20.4 µM
CAKI-1 renal
  GI50: 0.729 µM
  TGI: 2.13 µM
UO-31 renal
  GI50: 0.422 µM
  TGI: 0.952 µM
HS 578T breast
  GI50: 0.658 µM
  TGI: 1.67 µM
HCT-116 colon
  GI50: 0.496 µM
  TGI: 0.989 µM
EKVX NSCLC
  GI50: 0.851 µM
  TGI: 3.49 µM
IGROV1 ovarian
  GI50: 1.13 µM
  TGI: 5.03 µM
PC-3 prostate
  GI50: 0.747 µM
  TGI: 2.97 µM
SR leukemia
  GI50: 0.648 µM
  TGI: 1.73 µM

## COc1cc(C(O)c2nc3ccccc3s2)cc(OC)c1OC (stereo not given)
SF-268 CNS
  GI50: > 100 µM
  TGI: > 100 µM
DU-145 prostate
  GI50: > 100 µM
  TGI: > 100 µM
CAKI-1 renal
  GI50: 4.89 µM
  TGI: 93.9 µM
UO-31 renal
  GI50: 6.2 µM
  TGI: > 100 µM
HS 578T breast
  GI50: 40.5 µM
  TGI: > 100 µM
HCT-116 colon
  GI50: 45.4 µM
  TGI: > 100 µM
EKVX NSCLC
  GI50: 2.83 µM
  TGI: > 100 µM
IGROV1 ovarian
  GI50: 34.3 µM
  TGI: > 100 µM
PC-3 prostate
  GI50: 15.9 µM
  TGI: > 100 µM
SR leukemia
  GI50: 9.01 µM
  TGI: > 100 µM

## COc1ccc(-c2nnc(SCC(=O)Nc3ccc(/C(C)=N\O)cc3)n2-c2ccccc2)cc1OC
SF-268 CNS
  GI50: 3.07 µM
  TGI: 20.3 µM
DU-145 prostate
  GI50: 24.9 µM
  TGI: > 100 µM
CAKI-1 renal
  GI50: > 100 µM
  TGI: > 100 µM
UO-31 renal
  GI50: > 100 µM
  TGI: > 100 µM
HS 578T breast
  GI50: 3.75 µM
  TGI: > 100 µM
HCT-116 colon
  GI50: 11.3 µM
  TGI: > 100 µM
IGROV1 ovarian
  GI50: 3.74 µM
  TGI: 29.4 µM
PC-3 prostate
  GI50: > 100 µM
  TGI: > 100 µM
SR leukemia
  GI50: > 100 µM
  TGI: > 100 µM

## Nc1ncnc2c1ncn2CC(O)C(=O)O (stereo not given)
SF-268 CNS
  TGI: > 100 µM
DU-145 prostate
  TGI: > 100 µM
CAKI-1 renal
  TGI: > 100 µM
UO-31 renal
  TGI: > 100 µM
HS 578T breast
  TGI: > 100 µM
HCT-116 colon
  TGI: > 100 µM
EKVX NSCLC
  TGI: > 100 µM
IGROV1 ovarian
  TGI: > 100 µM
PC-3 prostate
  TGI: > 100 µM
SR leukemia
  TGI: > 100 µM
